# Experimental data from PMC9681820, “A PDE10A inhibitor CPL500036 is a novel agent modulating striatal function devoid of most neuroleptic side-effects” (Frontiers in Pharmacology, 2022).
# Read-outs that look alike come from different tables or passages of the source.
# What was measured:
# PDE10A = PDE10A (Homo sapiens, UniProt Q9Y233); experiment: LabChip microfluidic mobility-shift assay, IC50 against PDE10A; format: biochemical; conditions: eight concentrations 0.1 nM to 300 nM, duplicate
# Description: IC50 determination was assessed using LabChip® microfluid technology (PerkinElmer, Hopkinton, MA, United States) in line with the service-provider’s protocol. CPL500036 was tested at eight concentrations ranging from 0.1 nM to 300 nM. The assay was run on the EZ Reader™ II platform (Caliper Life Sciences, Hopkinton, MA, United States). After the incubation period, levels of the reaction products and remaining substrate were measured. Analyzed data were from duplicate measurement, and IC50 was determined using a variable slope with Prism 5 (GraphPad, San Diego, CA, United States).
# [1] = molecular target: T1, M2 muscarinic (human) receptor (Homo sapiens, UniProt P08172); experiment: M2 functional assay, intracellular cAMP (HTRF) in CHO cells, agonist and antagonist mode; format: cell-based
# T1 construct: host or cells: CHO-K1
# T1 sequence (P08172 whole entry): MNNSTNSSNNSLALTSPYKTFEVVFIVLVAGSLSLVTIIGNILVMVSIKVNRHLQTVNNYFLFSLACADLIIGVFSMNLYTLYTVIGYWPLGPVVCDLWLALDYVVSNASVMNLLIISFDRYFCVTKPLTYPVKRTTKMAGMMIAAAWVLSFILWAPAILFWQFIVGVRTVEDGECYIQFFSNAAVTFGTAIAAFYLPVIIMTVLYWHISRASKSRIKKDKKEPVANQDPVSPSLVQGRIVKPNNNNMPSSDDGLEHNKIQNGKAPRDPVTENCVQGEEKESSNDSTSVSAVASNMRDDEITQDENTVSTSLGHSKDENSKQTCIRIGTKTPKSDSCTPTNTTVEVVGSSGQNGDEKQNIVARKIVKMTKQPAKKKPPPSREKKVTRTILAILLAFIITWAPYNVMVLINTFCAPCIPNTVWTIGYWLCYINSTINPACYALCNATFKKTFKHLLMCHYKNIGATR
# Description: Binding of CPL500036 was calculated as the percent binding inhibition of a radioactively labeled ligand specific for each target. Enzyme inhibition of CPL500036 was calculated as the percent inhibition of the activity of the control enzyme. “No interaction” was denoted if inhibition ≤ 25% of specific binding of the control. Determination of muscarinic acetylcholine receptor (M2) activity induced by CPL500036 (antagonism and agonism) was undertaken in human recombinant CHO cells by measurement of the intracellular cAMP level according to the service-provider’s protocol. IC50 (concentration causing a half-maximal inhibition of specific binding of the control) or EC50 (concentration causing a half-maximal response of specific binding of the control) and the Hill coefficient were determined by non-linear regression analysis of the competition curves generated with mean replicate values using Hill-equation curve fitting with software developed at Cerep (Celle-Lévescault, France).
# Supplementary fig. 1 Assesment of possible allosteric modulation in M2 muscarinic (human) receptor […]
# by CPL500036 in CHO cells.
# The study was perfomed by Eurofins Cerep (Poitiers, France) according to the service-provider’s protocol. […] Cells were treated for 10 min with CPL500036. cAMP was detected by use of HTRF ( Homogeneous Time Resolved […]
# [2] = tested on: cardiac 3D spheroids (cardiomyocytes and fibroblasts derived from human pluripotent cells); experiment: Cardiotoxicity in spontaneously beating cardiac 3D spheroids; format: cell-based
# Description: The cardiotoxic effect of CPL500036 was evaluated in spontaneously beating cardiac 3D spheroids (comprising cardiomyocytes and fibroblasts derived from human pluripotent cells) by Cyprotex (Cheshire, United Kingdom). Experiments were carried out in accordance with the service-provider’s protocol. Specific parameters of cell health were assessed: number and size of spheroids, DNA structure, intracellular level of calcium ions, mitochondrial mass, membrane potential and cellular ATP. […] During the 14 days of the experiment, redosing occurred on three occasions. Spheroid hypertrophy was measured on days 3, 7, 10, and 14 using the “brightfield live cellular imaging” mode of a Cellomics ArrayScan® XTI system (Thermo Scientific, Waltham, MA, United States). On day-14, the spheroid model was analyzed using the confocal mode of Cellomics ArrayScan XTI following incorporation of appropriate fluorescent dyes. Subsequently, cellular ATP content was measured using CellTiterGlo® (Promega, Fitchburg, WI, United States). Mitomicyn C and dasatinib were used as positive controls (Supplementary Table S1).
# concentration at which 50% maximum effect is observed for each cell health parameter; NR - No response observed.
# [3] = Pharmacokinetics after oral gavage in rats (plasma and brain); format: in vivo, Wistar Han rats; conditions: for AUC(0-t): read-out: AUC(0–24h)
# Description: The study was carried out in 40 male Wistar Han rats (∼10 weeks; Tri-City Academic Laboratory Animal Centre, Research and Services Centre, Medical University of Gdansk). Rats were fasted for 12 h (water was available at libitum) before administration and fed 4 h post-dose. Rats received CPL500036 (3 mg/kg per oral gavage). At each of eight time points (15 min, 30 min as well as 1 h, 2 h, 4 h, 7 h, 12 h, and 24 h), five rats were killed by exsanguination, and samples of blood and brain were harvested. Two male and two female Beagle dogs (10.5–13 months old, MediTox s.r.o., Konarovice, Czech Republic) received CPL500036 in a dose of 1.5 mg/kg per oral gavage. Blood was taken by venepuncture from v. cephalica antebrachii at twelve time points (0 min, 15 min, 30 min as well as 1 h, 2 h, 3 h, 4 h, 6 h, 8 h, 12 h, 24 h, and 48 h.
# Blood was collected into tubes containing the anticoagulant K2EDTA and centrifuged (2,000 × g, 15 min, 4°C) to obtain plasma. Brain samples were homogenized in water. Plasma and brain homogenates were stored at −80°C until analyses. Acetonitrile (150 μl) spiked with internal standard (donepezil; MilliporeSigma) was added to 50 μl of each plasma homogenate or brain homogenate, respectively. The mixture was shaken vigorously for 2 min and then centrifuged (4,000 × g, 4 min, room temperature). Supernatants were injected into a high-performance liquid chromatography system (Infinity™ 1,260; Agilent Technologies, Santa Clara, CA, United States) with a Zorbax SB column ([…]; 1.8 μm; Agilent Technologies). The mobile phase was ammonium formate (20 mM, pH 3.0) and acetonitrile with 0.1% formic acid. The gradient chromatographic separation used a flow rate of 0.4 ml/min for 7.5 min at a nominal temperature of 30°C. Signal acquisition was undertaken for 5.5 min using of a triple quadrupole mass spectrometer (6,460 series; Agilent Technologies) with electrospray ionization (5500 V, 320°C). Multiple-reaction monitoring was applied to detect the following transitions of the m/z ratio: 342.0–220.9 and 342–235.9 for CPL500036; 380.5–362.9 and 380.5–243.5 for donepezil. The drug concentration was calculated from the ratio of the peak area response relative to the internal standard using a standard curve.
# psychosis animal models = tested on: psychosis animal models; design: method as in manuscript in preparation; conditions: ref manuscript in preparation; cited from earlier work
# [4] = male, Wistar Han, rat brain, 3 mg/kg oral gavage, mean ± SD
# [5] = male, Wistar Han, rat plasma, 3 mg/kg oral gavage, mean ± SD
# Chain of PDE10A (Q9Y233 whole entry, species assumed): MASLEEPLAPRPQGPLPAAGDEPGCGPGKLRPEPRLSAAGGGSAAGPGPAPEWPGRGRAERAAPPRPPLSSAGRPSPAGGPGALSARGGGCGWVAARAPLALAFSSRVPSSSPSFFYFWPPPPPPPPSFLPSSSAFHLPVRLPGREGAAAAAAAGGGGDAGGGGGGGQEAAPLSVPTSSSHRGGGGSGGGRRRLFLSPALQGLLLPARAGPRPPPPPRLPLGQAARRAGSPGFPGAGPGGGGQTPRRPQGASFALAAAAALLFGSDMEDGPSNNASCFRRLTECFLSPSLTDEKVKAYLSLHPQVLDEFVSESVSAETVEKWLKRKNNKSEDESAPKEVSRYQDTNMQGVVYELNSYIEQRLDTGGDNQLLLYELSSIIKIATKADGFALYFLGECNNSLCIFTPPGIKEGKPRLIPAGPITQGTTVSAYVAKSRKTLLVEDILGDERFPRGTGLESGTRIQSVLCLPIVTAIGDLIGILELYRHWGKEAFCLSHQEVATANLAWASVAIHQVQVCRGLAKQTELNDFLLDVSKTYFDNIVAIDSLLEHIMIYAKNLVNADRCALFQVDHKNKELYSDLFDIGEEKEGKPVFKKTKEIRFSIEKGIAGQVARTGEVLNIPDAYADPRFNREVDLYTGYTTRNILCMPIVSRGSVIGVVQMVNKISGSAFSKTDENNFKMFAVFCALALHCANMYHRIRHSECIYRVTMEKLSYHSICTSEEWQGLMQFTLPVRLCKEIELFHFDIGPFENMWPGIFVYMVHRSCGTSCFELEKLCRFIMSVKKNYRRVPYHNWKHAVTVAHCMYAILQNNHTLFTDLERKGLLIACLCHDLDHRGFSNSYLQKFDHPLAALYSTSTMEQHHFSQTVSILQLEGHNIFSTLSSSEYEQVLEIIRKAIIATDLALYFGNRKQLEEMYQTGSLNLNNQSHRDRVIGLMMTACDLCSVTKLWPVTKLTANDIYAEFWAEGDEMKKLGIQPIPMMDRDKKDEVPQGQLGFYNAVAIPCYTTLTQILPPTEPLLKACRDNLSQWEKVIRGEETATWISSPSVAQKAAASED
compound,measurement,setting,value
"Cc1ncc(C)n2nc(-c3ccn4cc(-c5ccccc5)nc4n3)nc12 [CPL500036, 7-[5,8-Dimethyl-(1,2,4)triazolo (1,5-a)pyrazin-2-yl]-2-phenylimidazo (1,2-a) pyrimidine]",IC50,PDE10A,0.001 µM
same,IC50,[1],9.2 µM
same,agonist-like behavior,"[1]; agonistic mode, in presence of methoctramine, CHO cells, cAMP",didn’t trigger any agonist-like behavior
same,"effect on the number or size of spheroids, intracellular calcium concentration, mitochondrial mass, membrane potential or intracellular ATP",[2]; 0.0457 μM–100 µM,no effect
same,IC50,"[2]; Homo sapiens, 3D cardiac spheroids, 0.0457 μM–100 µM, read-out: IC50, impaired DNA structure",37.4 µM
same,AC50,"[2]; Homo sapiens, 3D cardiac spheroids, read-out: DNA structure AC50",37.4 µM
same,bioavailability,"[3]; Wistar rats, 3 mg/kg, p.o.",good bioavailability
same,Kp,"[3]; male, Wistar Han, brain/plasma, rat, 3 mg/kg oral gavage, mean ± SD, read-out: B/P (brain to plasma ratio)",0.49 ± 0.06
same,Cmax,[3]; [4],94.3 ± 28.5 ng/g
same,Tmax,[3]; [4],6.8 ± 3.3 h
same,AUC(0-t),[3]; [4],844 ± 202 ng·h/mL
same,Cmax,[3]; [5],238 ± 98.1 ng/mL
same,Tmax,[3]; [5],5.8 ± 1.6 h
same,half-life,[3]; [5],6.4 ± 6.2 h
same,AUC(0-t),[3]; [5],1620 ng·h/mL
same,dose showing therapeutic activity,psychosis animal models,0.1 mg/kg
